According to patent US4791197A, “Cephalosporin compounds” (priority 1984, dated 1988):
Counter-ions that a name gives are not always drawn.

Key:
Experiment in all cases: MIC against growth of bacteria by agar-dilution method
Assay type in all cases: cell-based
[1] = test system: Escherichia coli NIHJ JC-2; conditions: NIHJJC2
Source text: (§1) The compounds of this invention are all novel compounds.

[2] = test system: Klebsiella pneumoniae PCI 602; conditions: PCI602
Source text: as §1

Proteus mirabillis GN 79 = test system: Proteus mirabillis GN 79
Source text: as §1

Proteus rettgeri GN 624 = conditions: Providencia rettgeri, GN624
Source text: as §1

Proteus vulgaris GN 76 = conditions: GN76
Source text: as §1

[3] = test system: Pseudomonas aeruginosa MB 3833; conditions: MB3833
Source text: as §1

[4] = test system: Salmonella typhimurium LT-2; conditions: Salmonella enterica
Source text: as §1

[5] = test system: Serratia marcescens No. 1
Source text: as §1

[6] = test system: Staphylococcus aureus 209P JC-1
Source text: as §1

[7] = test system: Staphylococcus aureus Smith
Source text: as §1

Q: Which MIC [1] does the source give for Cc1nnc(SCC2=C(C(=O)O)N3C(=O)C(NC(=O)/C(=C\C(=O)O)c4csc(N)n4)C3SC2)s1 (stereo not drawn) [Example 2, 7-[2-(2-aminothiazol-4-yl)-2-carboxymethylene-acetamido]-3-(5-methyl-1,3,4-thiadiazol-2-yl)thiomethyl-3-cephem-4-carboxylic acid (Z-isomer) trifluoroacetate] here?
A: 0.78 µg/mL

Q: What about the MIC [2] of the same compound?
A: 0.78 µg/mL

Q: And the MIC (Proteus mirabillis GN 79)?
A: 0.2 µg/mL

Q: And the MIC (Proteus rettgeri GN 624)?
A: ≤ 0.025 µg/mL

Q: And the MIC (Proteus vulgaris GN 76)?
A: 0.39 µg/mL

Q: What about the MIC [3] of the same compound?
A: > 50 µg/mL

Q: And the MIC [4]?
A: 0.39 µg/mL

Q: What about the MIC [5] of the same compound?
A: 0.1 µg/mL

Q: What about the MIC [6] of the same compound?
A: 3.13 µg/mL

Q: What about the MIC [7] of the same compound?
A: 3.13 µg/mL

Q: What does the source list for C[n+]1ccc(SCC2=C(C(=O)O)N3C(=O)C(NC(=O)/C(=C\C(=O)O)c4csc(N)n4)C3SC2)cc1 (stereo not drawn) [Example 7, 7-[2-(2-aminothiazol-4-yl)-2-carboxymethyleneacetamido]-3-(1-methylpyridinium-4-yl)thiomethyl-3-cephem-4-carboxylic acid (Z-isomer) trifluoroacetate]?
A: MIC [1]: 0.39 µg/mL; MIC [2]: 0.78 µg/mL; MIC (Proteus mirabillis GN 79): 1.56 µg/mL; MIC (Proteus rettgeri GN 624): 0.1 µg/mL; MIC (Proteus vulgaris GN 76): 3.13 µg/mL; MIC [3]: > 50 µg/mL; MIC [4]: 0.39 µg/mL; MIC [5]: 0.78 µg/mL; MIC [6]: 0.2 µg/mL; MIC [7]: 0.39 µg/mL

Q: C[n+]1ccc(SCC2=C(C(=O)O)N3C(=O)C(NC(=O)/C(=C/C(=O)O)c4csc(N)n4)C3SC2)cc1 (stereo not drawn) [Example 10, 7-[2-(2-aminothiazol-4-yl)-2-carboxymethylene-acetamido]-3-(1-methylpyridinium-4-yl)thiomethyl-3-cephem-4-carboxylic acid (E-isomer) trifluoroacetate] was tested. Which MIC [1] did it give?
A: 12.5 µg/mL

Q: What about the MIC [2] of the same compound?
A: 25 µg/mL

Q: What about the MIC (Proteus mirabillis GN 79) of the same compound?
A: 50 µg/mL

Q: What about the MIC (Proteus rettgeri GN 624) of the same compound?
A: 3.13 µg/mL

Q: And the MIC (Proteus vulgaris GN 76)?
A: > 50 µg/mL

Q: What about the MIC [3] of the same compound?
A: > 50 µg/mL

Q: And the MIC [4]?
A: 12.5 µg/mL

Q: What about the MIC [5] of the same compound?
A: 25 µg/mL

Q: And the MIC [6]?
A: 0.78 µg/mL

Q: And the MIC [7]?
A: 0.78 µg/mL
